Broadly, the EC50 is the concentration giving half of the maximal effect.

Data on 24 compounds can be found in PubChem BioAssay AID743229 (The Scripps Research Institute Molecular Screening Center, 2013).

The target in this assay is Trace amine-associated receptor 1 (Homo sapiens) (UniProt Q96RJ0). Nature of the assay: TAAR1 activation concentration-response – cell-based, fluorescence, late stage, dose response (AID 743229). The settings on record: TAAR1-expressing cells, fluorescence agonist read-out.
Trace amine-associated receptor 1 (Homo sapiens), sequence (Q96RJ0 whole entry, looked up, the tested form may be a part): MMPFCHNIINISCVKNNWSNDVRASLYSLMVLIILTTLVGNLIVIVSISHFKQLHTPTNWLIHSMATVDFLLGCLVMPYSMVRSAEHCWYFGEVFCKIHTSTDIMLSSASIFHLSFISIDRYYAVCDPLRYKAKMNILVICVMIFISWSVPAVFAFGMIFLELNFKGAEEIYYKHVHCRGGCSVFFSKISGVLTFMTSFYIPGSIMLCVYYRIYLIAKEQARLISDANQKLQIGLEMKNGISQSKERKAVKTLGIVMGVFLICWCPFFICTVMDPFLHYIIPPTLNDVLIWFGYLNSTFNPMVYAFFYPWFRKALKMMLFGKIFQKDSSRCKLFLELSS
Consider `c1ccc(CCn2nnnc2C(c2cccs2)N2CCN(Cc3ccc4c(c3)OCO4)CC2)cc1` (centres undefined), for which the EC50 was 233 nM.
Next, `Cc1ccc(NC(=O)CCN2CCc3ccccc3C2)cc1`: 1270 nM; `O=C(Nc1ccccc1)Nc1ccncc1`: 807 nM.
Then `O=C(Nc1cccnc1)Nc1cccc(F)c1`, with 3310 nM; and `CCOC(=O)C(NC(=O)CC)(N1CCc2ccccc2C1)C(F)(F)F` (centres undefined), with 42.4 nM; and `O=C(C(=O)N1CCc2ccccc2C1)c1cn(CC(=O)N2CCCCC2)c2ccccc12`, with 781 nM.
Then `NC(N)=NN=Cc1c(Cl)cccc1Cl`, with 219 nM; and `O=C(Nc1ccncc1)Nc1ccc(F)cc1`, with 866 nM.
Turning to `OCCNc1nc(Nc2ccc(O)cc2)nc2ccccc12`, the EC50 is 804 nM.
Next, `O=C(CCN1CCC(c2ccccc2)C1)c1cccs1` (centres undefined): 108 nM; `CC1(C)CCCN(C(=O)c2coc(=O)c(Br)c2)C1`: 481 nM.
Then `CC(=NCCc1ccccc1)C1CCOC1=O` (centres undefined), with 36.5 nM.
Then `O=C(CCN1CCc2ccccc2CC1)c1ccc2c(c1)OCCO2`, with 340 nM; and `COc1cc(C(=O)CCN2CCC(c3ccccc3)C2)cc(OC)c1OC` (centres undefined), with 85.9 nM; and `O=C(CCN1CCC(c2ccccc2)C1)c1ccc2c(c1)OCCO2` (centres undefined), with 263 nM.
As for `Nc1nc(Nc2ccccc2)nc2ccccc12`, the EC50 was 210 nM.
Next, `Cc1cc(C)n(C(CC(=O)N2CCc3ccccc3C2)C(=O)O)n1` (centres undefined): 170 nM; `CCOC(=O)C(NC(C)=O)(N1CCc2ccccc2C1)C(F)(F)F` (centres undefined): 75 nM; `Cc1cc(N(C)C)nc(Nc2ccccc2)n1`: 182 nM.
For the compound `OCCNc1nc(Nc2cccc(O)c2)nc2ccccc12`, the EC50 is 257 nM.
Next, `O=C(CCCCl)N1CCc2[nH]c3ccccc3c2C1`: 101 nM; `c1ccc2c3c([nH]c2c1)CCNC3`: 294 nM; `c1ccc2c(c1)CCN(c1nc3cc4c(cc3s1)OCO4)C2`: 278 nM.
Consider `Nc1nc(Nc2cccc(F)c2)nc2ccccc12`, for which the EC50 is 346 nM.
